The values that follow come from EP3075378A1, “ANTI-INFLAMMATORY AGENT AND MELANIN PRODUCTION SUPPRESSANT” (Kao Corporation, priority 2013, dated 2015).

The nature of data set [1]: Test of melanin production suppression, using three-dimensional cultured skin model. The format is cell-based, human. As to conditions: Homo sapiens, 264 h; Addition concentration 5 mmol/L; method as Example 6; relative to control (H2O) 100; read-out: Melanin amount (%). On the procedure: (§1) A three-dimensional cultured skin model (MEL-300-A, manufactured by MatTek Corporation) composed of normal human epidermal melanocytes and epidermal keratinocytes was cultured, using the attached medium to which factors inducing melanin production were added. 25 µL of a pentaerythritol solution (1 or 5 mmol/L) was added onto the keratinous layer of the skin model. The skin model was cultured for 11 days exchanging the medium and the test substance solution every 2 to 3 days, and then the skin model was washed, and the cell survival rate was measured using Alamar Blue (manufactured by Invitrogen). In addition, the skin model was dissolved under heating in SOLVABLE (manufactured by Perkin Elmar), and the absorbance (405 nm) was measured and the amount of melanin was calculated relative to a standard determined by similarly dissolving melanin (manufactured by SIGMA) in SOLVABLE. The amount of melanin was determined relative to 100 (%) of the control (H2O addition).
(§2) The test method is similar to that of Example 6.

Data set [2] concerns three-dimensional cultured skin model (MEL-300-A) composed of normal human epidermal melanocytes and epidermal keratinocytes. The data set is described as follows: Cell survival rate (Alamar Blue) in three-dimensional cultured skin model. In kind it is cell-based. On the procedure:
as §1, §2
In general terms: The colour change of resazurin is a common sign of viable cells or microbes.

Data set [3] has the same test system. The data set is described as follows: Test of melanin production suppression, using three-dimensional cultured skin model. The format is cell-based. To be noted: 25 µL on keratinous layer, 11 days culture, relative to 100 (%) of control (H2O). On the procedure:
as §1, §2

Data set [4] deals with Normal human epidermal cells. The data set is described as follows: Test-1 of PGE2 production suppression (arachidonic acid added). The format is cell-based. As to conditions: culture supernatant after one day, control 1711.7 ± 25.91. On the procedure: Normal human epidermal cells were seeded on a 24 well plate by 2 × 10^5 each, and cultured for 2 days on a MCDB153 medium. The medium was exchanged with a MCDB153 medium containing arachidonic acid (manufactured by Wako Pure Chemical Industries, Ltd.), which is a substrate of PGE2, and pentaerythritol (manufactured by JUNSEI CHEMICAL CO., LTD.) or the two acetal derivatives of pentaerythritol (the compounds of Examples 1 and 2), and the cells were further cultured for one day. As a control, purified water was added instead of pentaerythritol or the acetal derivative of pentaerythritol. After completion of the culture, the amount of PGE2 released in the cultured supernatant was quantified using a PGE2 measurement kit (manufactured by Cayman Chemical Company). In addition, in the same manner as the control, a control group to which purified water was added, but arachidonic acid was not added, was provided.

The subject of data set [5] is Normal human epidermal cells. The data set is described as follows: Test-2 of PGE2 production suppression (UVB irradiation). In kind it is cell-based. To be noted: after 30 mJ/cm^2 UVB, culture supernatant after one day, control 670.1 ± 23.97. On the procedure: Normal human epidermal cells were seeded on a 24 well plate by 2 × 10^5 each, and cultured for two days on a MCDB153 medium. The medium was replaced with HEPES Buffer, and was irradiated with 30 mJ/cm^2 UVB using a UVB lamp (TOREX FL20S and E-30/DMR 20W manufactured by TOSHIBA MEDICAL SUPPLY CO., LTD.). The intensity of ultraviolet rays was measured with a digital type ultraviolet intensity meter (manufactured by Ultraviolet). After the UVB irradiation, the medium was exchanged with a MCDB153 medium containing pentaerythritol (manufactured by JUNSEI CHEMICAL CO., LTD.), and further cultured for one day. As a control, purified water was added instead of pentaerythritol. After completion of the culture, the amount of PGE2 released in the culture supernatant was quantified using a PGE2 measurement kit (manufactured by Cayman Chemical Company). In addition, in the same manner as the control, a control group containing purified water and not irradiated with UVB was provided.

For the molecule `OC[C@@H](O)[C@@H](O)[C@H](O)[C@H](O)CO` [Mannitol, reference compound], the activity at 5000 µM in data set [1] amounted to 96.3%. In addition, in data set [2] (5 mmol/L, Example 7, method as Example 6), the cell toxicity result was “not detected”.
For `OC[C@@H](O)[C@@H](O)CO` [Erythritol, reference compound], the activity at 5000 µM in data set [1] was found to be 97%.
On to `OCC(CO)(CO)CO` [Pentaerythritol], for which the “amount of melanin (%)” value in data set [3] (1 mmol/L) is given as 83.8%; in data set [3] (5 mmol/L), 76.7%. In addition, the “PGE2 amount (pg/mL) ± SD” value in data set [4] (sample concentration 0.5 µM) is listed as 789.2 ± 168.61 pg/mL; in data set [4] (sample concentration 5.0 µM), 1151.3 ± 6.73 pg/mL; in data set [5] (sample concentration 0.05 µM), 565.5 ± 28.10 pg/mL; in data set [5] (sample concentration 0.5 µM), 522.8 ± 50.40 pg/mL; in data set [5] (sample concentration 5.0 µM) it was 512.3 ± 65.31 pg/mL. Moreover, in data set [2] (1 or 5 mmol/L, any test addition concentration, 11 days culture), the cell toxicity result is on record as “not detected”.
On to `CC1(C)OCC2(CO1)COC(C)(C)OC2` [diisopropylidene pentaerythritol], for which the “PGE2 amount (pg/mL) ± SD” value in data set [4] (sample concentration 0.5 µM) was 746.0 ± 28.70 pg/mL; in data set [4] (sample concentration 5.0 µM) it was 1142.0 ± 19.94 pg/mL.
Taken in the same sequence, the figures for `CC1(C)OCC(CO)(CO)CO1` [monoisopropylidene pentaerythritol] were 824.7 ± 28.78 pg/mL and 790.5 ± 11.64 pg/mL.
